“Also recorded” adds a separate entry of the source. Where two headings read alike, the source gives them in different places.
How the values were obtained:
5-HT2A = 5-HT2A (Homo sapiens, UniProt P28223)
C57BL/6J mice [1] = test: Social interaction test after chronic social defeat stress (CSDS)
[2] = Mouse plasma protein binding; assay type: in vitro ADME; details: for fraction unbound: mouse, plasma
[3] = In vivo pharmacokinetics in mice (plasma and brain, subcutaneous); design: species or system mouse; details: for Kp / Cmax: male, C57BL/6, mouse, sc, 1 mg/kg; for Kp: brain and plasma
Method: Test System: Healthy male C57BL/6 mice (8-12 weeks old) weighing between 20 to 35 g were procured from Global (India). Three mice were housed in each cage. Temperature and humidity were maintained at 22±3° C. and 30-70%, respectively and illumination was controlled to give a sequence of 12 hr light and 12 hr dark cycle. Temperature and humidity were recorded by auto-controlled data logger system. All animals were provided laboratory rodent diet (Envigo Research Private Ltd, Hyderabad, India). Reverse osmosis water treated with UV light was provided ad libitum.
Study Design: Total twenty-seven male mice were used in this study with 3 mice/time point design. Animals were administered subcutaneously […] with solution formulation of compound at the requited dose.
Formulation Preparation: Accurately weighed of the desired compound was taken in a labeled bottle. To this the appropriate amount of normal saline was added, vortexed and followed by addition of 2 mol. equiv. of glacial acetic acid. The above formulation was again vortexed and sonicated for about 1 h with intermittent vortexing to obtain clear solution. The final dose formulation was filtered through 0.45 micron filter. No adverse clinical signs in any animals during study period.
Sample Collection: Blood samples (approximately 60 μL) were collected under light isoflurane anesthesia (Surgivet®) from retro orbital plexus from a set of three mice at 0.083, 0.25, 0.5, 1, 2, 4, 8, and 12 hr. Immediately after blood collection, plasma was harvested by centrifugation at 4000 rpm, 10 min at […] and samples were stored at −70±10° C. until bioanalysis. Following blood collection, immediately animals were sacrificed followed by abdominal vena-cava was cut open and whole body was perfused from heart using 10 mL of normal saline. Brain samples were collected from set of three mice at 0.083, 0.25, 0.5, 1, 2, 4, 8, and 12 hr. After isolation, brain samples were rinsed three times in ice cold normal saline (for 5-10 seconds/rinse using ˜5-10 mL normal saline in disposable petri dish for each rinse) and dried on blotting paper. Brain samples were homogenized using ice-cold phosphate buffer saline (pH-7.4). Total homogenate volume was three times the tissue weight. All homogenates were stored below −70±10° C. until bioanalysis.
Concentrations of the compound in mouse plasma and brain samples were determined by fit for purpose LC-MS/MS method. The sample processing and extraction procedure, chromatographic and mass spectrometric conditions as follows:
Non-Compartmental-Analysis tool of Phoenix WinNonlin® Version 8.0 (Certara, Princeton, NJ, USA) was used to assess the pharmacokinetic parameters. Peak plasma concentration (Cmax) and time for the peak plasma concentration (Tmax) were the observed values. The areas under the concentration time curve (AUClast and AUCinf) were calculated by linear trapezoidal rule. The terminal elimination rate constant, ke was determined by regression analysis of the linear terminal portion of the log plasma concentration-time curve. Tissue-Kps were calculated using Microsoft Excel® (Microsoft Corporation, […], WA, USA).

human 5-HT1A = target: T1, human 5-HT1A (Homo sapiens, UniProt P08908); test: 5-HT1A-mediated cAMP reduction assay (GloSensor, HEK293-T); details: cAMP, 5-HT1A WT
T1 sequence (P08908 1-422): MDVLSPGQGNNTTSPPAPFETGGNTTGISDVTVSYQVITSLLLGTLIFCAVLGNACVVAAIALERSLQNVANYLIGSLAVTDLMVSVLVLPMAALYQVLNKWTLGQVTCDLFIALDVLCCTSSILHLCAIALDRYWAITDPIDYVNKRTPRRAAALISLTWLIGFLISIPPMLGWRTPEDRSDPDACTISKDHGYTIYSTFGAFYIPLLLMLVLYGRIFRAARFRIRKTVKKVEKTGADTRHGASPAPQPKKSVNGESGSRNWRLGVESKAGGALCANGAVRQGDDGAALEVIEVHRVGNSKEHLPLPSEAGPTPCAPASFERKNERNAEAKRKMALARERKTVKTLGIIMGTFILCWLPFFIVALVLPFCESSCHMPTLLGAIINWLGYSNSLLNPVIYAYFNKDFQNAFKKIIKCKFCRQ

C57BL/6J mice [4] = test: Sucrose preference test after chronic social defeat stress; assay type: in vivo, mouse; details: stressed mice
From the text: The sucrose preference test is a volitional two-bottle choice procedure in which mice are given the choice between consuming water and a 1% sucrose solution. This paradigm has been used extensively to assess the effects of stress-induced anhedonia. On day 10 of CSDS mice were individually housed and habituated to two bottles containing just water. Twenty-four hours later, following the SI test, one bottle was replaced with a 1% sucrose solution (w/v) made with water from the animal vivarium. Mice had ad libitum overnight access to both bottles and preference for sucrose over water was calculated as follows: [sucrose/(sucrose+water)*100]. Data were averaged from two independent experiments. A total of 27 mice were administered vehicle (9 control, 18 stress), 27 received 4-F, 5-MeO-PyrT (9 control, 18 stress), 15 received WAY-100635 (5 control, 10 stress), and 15 received 4-F, 5-MeO-PyrT+WAY-100635 (5 control, 10 stress). More animals were used for the stressed groups due to the inherent resilience of mice to social defeat stress (Krishnan et al. 2007). Analysis of different treatment conditions of control and stressed animals was done in GraphPad Prism using two-way ANOVA.

Chain of 5-HT2A (P28223 whole entry): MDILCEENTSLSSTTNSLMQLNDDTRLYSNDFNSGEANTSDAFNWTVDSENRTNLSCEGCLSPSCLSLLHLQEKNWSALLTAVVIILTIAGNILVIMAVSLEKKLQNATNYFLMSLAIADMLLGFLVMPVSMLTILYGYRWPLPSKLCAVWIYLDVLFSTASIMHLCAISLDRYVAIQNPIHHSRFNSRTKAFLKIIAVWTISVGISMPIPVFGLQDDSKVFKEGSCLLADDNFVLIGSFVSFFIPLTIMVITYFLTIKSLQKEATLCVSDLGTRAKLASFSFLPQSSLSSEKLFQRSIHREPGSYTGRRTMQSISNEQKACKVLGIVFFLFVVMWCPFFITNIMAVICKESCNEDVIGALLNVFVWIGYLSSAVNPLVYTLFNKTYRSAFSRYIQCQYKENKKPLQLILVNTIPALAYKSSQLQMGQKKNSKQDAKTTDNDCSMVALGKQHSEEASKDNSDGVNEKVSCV

Q: For `COc1ccc2[nH]cc(CCN3CCCC3)c2c1F` [4-F, 5-MeO-PyrT, 4-Fluoro, 5-methoxypyrrolidinyl-tryptamine], which EC50 (5-HT2A; Gq BRET, 5-HT2A WT) is on record?
A: Its EC50 is 300 nM.

Q: What about the pEC50 (5-HT2A; Gq BRET, 5-HT2A WT) of the same molecule?
A: The pEC50 was “(6.52,”.

Q: And the EC50 (5-HT2A; read-out: Gq BRET EC50)?
A: The EC50 was 300 nM.

Q: What about the “number of resilient mice (SI ratio >1)” value (C57BL/6J mice [1]; drug- vs vehicle-treated stressed animals) of the same molecule?
A: Its value is “markedly increases the number of resilient mice”.

Q: What about the “general locomotion at the social interaction test” value (C57BL/6J mice [1]; mice, one s.c. administration) of the same molecule?
A: The value was “no effects of the pharmacological intervention on general locomotion; also recorded: no apparent alterations in locomotor activity”.

Q: And the “amelioration of SI deficits under WAY-100635 co-administration” value (C57BL/6J mice [1]; stressed mice, co-administered 5-HT1A antagonist WAY-100635)?
A: Its value is “blocked”.

Q: And the “corner time (anxiety-like behavior)” value (C57BL/6J mice [1]; stressed mice, one s.c. administration)?
A: Its value is “rescued; also recorded: no longer observed”.

Q: What about the “social interaction deficit induced by chronic social defeat stress” value (C57BL/6J mice [1]; stressed mice, one s.c. administration, test 24 hr post drug) of the same molecule?
A: The value was “rescued; also recorded: rescuing the social interaction deficit”.

Q: And the recovery [2]?
A: The recovery was 84.7%.

Q: What about the “% Compound remaining at 4 h” value ([2]; 4 h) of the same molecule?
A: The value was 105.6%.

Q: What about the fraction unbound ([2]; read-out: % Bound Mean (converted)) of the same molecule?
A: The fraction unbound was 0.626.

Q: What about the fraction unbound ([2]; read-out: % Unbound) of the same molecule?
A: The fraction unbound was 0.626.

Q: What about the fraction unbound ([2]; read-out: fu) of the same molecule?
A: The fraction unbound was 0.626.

Q: And the fraction unbound ([2]; replicate R1, read-out: % Bound R1 (converted))?
A: Its fraction unbound is 0.68.

Q: What about the fraction unbound ([2]; replicate R2, read-out: % Bound R2 (converted)) of the same molecule?
A: The fraction unbound was 0.573.

Q: And the Kp ([3]; mouse, 1 mg/kg s.c., read-out: total brain:plasma ratio)?
A: Its Kp is 3.3.

Q: What about the Kp ([3]; mouse, 1 mg/kg s.c., read-out: unbound brain:plasma ratio) of the same molecule?
A: Its Kp is 0.91.

Q: And the Cmax ([3]; brain, mouse brain, 1 mg/kg SC, read-out: Total Cmax (ng/mL), Brain)?
A: Its Cmax is 143 ng/mL.

Q: And the Cmax ([3]; brain, mouse, 1 mg/kg subcutaneous, read-out: Cmax/brain)?
A: The Cmax was 143 ng/mL.

Q: What about the Cmax ([3]; plasma, mouse plasma, 1 mg/kg SC, read-out: Total Cmax (ng/mL), Plasma) of the same molecule?
A: Its Cmax is 44 ng/mL.

Q: What about the “Total AUClast ((hr*ng)/mL), Brain” value ([3]; mouse brain, 1 mg/kg SC) of the same molecule?
A: The value was 128.34 ng·h/mL.

Q: What about the “time at which brain penetration peaks” value ([3]; mouse brain, 1 mg/kg s.c.) of the same molecule?
A: Its value is 30 min.

Q: And the “Total AUClast ((hr*ng)/mL), Plasma” value ([3]; mouse plasma, 1 mg/kg SC)?
A: The value was 26.40 ng·h/mL.

Q: What about the “compound largely cleared within” value ([3]; mouse, 1 mg/kg s.c.) of the same molecule?
A: Its value is no more than 2 h.

Q: What about the “estimated free drug concentration in the brain at Tmax” value ([3]; mouse, 1 mg/kg s.c.) of the same molecule?
A: Its value is roughly 100 nM.

Q: What about the EC50 (human 5-HT1A) of the same molecule?
A: The EC50 was 0.03 nM.

Q: What about the pEC50 (human 5-HT1A) of the same molecule?
A: The pEC50 was 10.5.

Q: What about the “effect on sucrose preference under WAY-100635 co-administration” value (C57BL/6J mice [4]) of the same molecule?
A: The value was “reversed the effects”.

Q: And the sucrose preference (C57BL/6J mice [4]; relative to vehicle-treated animals)?
A: Its sucrose preference is “significantly increased sucrose preference”.
